Data as given in ChEMBL document CHEMBL6134858, “Structure-Based Discovery Targeting GSK-3α Reveals Potent Nanomolar Selective 4-Phenyl-1H-benzofuro[3,2-b]pyrazolo[4,3-e]pyridine Inhibitor with Promising Glioblastoma and CNS-Active Potential in Cellular Models” (J Med Chem, 2025).
The source made the active and inactive calls. The calls are words filed in the database; no cut-off is given here.

Experiments:
T98G [1] = assay: Antiproliferative activity against human T98G cells assessed as reduction in cell viability incubated for 48 hrs by PrestoBlue cell viability assay
U-87 MG [2] = assay: Antiproliferative activity against human U-87 MG cells assessed as reduction in cell viability incubated for 24 to 72 hrs by PrestoBlue cell viability assay; assay type: functional, cell-based; settings: U-87MG ATCC, time 24-72 hrs
[3] = biological target: Protein kinase C alpha type (Homo sapiens) (UniProt P17252); assay: Inhibition of PKCalpha (unknown origin) assessed as residual activity at 10 uM relative to control
T98G [4] = assay: Antiproliferative activity against human T98G cells assessed as reduction in cell viability incubated for 24 hrs by PrestoBlue cell viability assay
[5] = Metabolic stability in human liver microsomes assessed as half life at 10 uM incubated up to 60 mins by HPLC-MS analysis; assay type: ADME, Microsome
U-251 [6] = assay: cells; settings: Homo sapiens, U-251, 48 h
Description: Antiproliferative activity against human U-251MG cells assessed as reduction in cell viability incubated for 48 hrs by PrestoBlue cell viability assay

Homo sapiens [7] = species: Homo sapiens; assay: Inhibition of PKA (unknown origin) at 10 uM
[8] = biological target: Mitogen-activated protein kinase 1 (Homo sapiens) (UniProt P28482); assay: Inhibition of ERK2 (unknown origin) assessed as residual activity at 10 uM relative to control
[9] = biological target: Mitogen-activated protein kinase 3 (Homo sapiens) (UniProt P27361); assay: Inhibition of ERK1 (unknown origin) assessed as residual activity at 10 uM relative to control
T98G [10] = assay: Antiproliferative activity against human T98G cells assessed as reduction in cell viability incubated for 24 to 72 hrs by PrestoBlue cell viability assay; assay type: functional, cell-based; settings: dose 0.3-300 µM, time 24-72 hrs
U-251 [11] = assay: Induction of cell cycle arrest in human U-251MG cells assessed as accumulation of cell at S phase at IC50 concentration incubated for 72 hrs by propidium iodide/RNase staining based flow cytometry relative to control; assay type: functional
[12] = Metabolic stability in human liver microsomes assessed as intrinsic clearance at 10 uM incubated up to 60 mins by HPLC-MS analysis; assay type: ADME, Microsome; settings: 1 h
[13] = biological target: Protein kinase C gamma type (Homo sapiens) (UniProt P05129); assay: Inhibition of PKCgamma (unknown origin) assessed as residual activity at 10 uM relative to control
U-87 MG [14] = assay: Induction of cell cycle arrest in human U-87 MG cells assessed as accumulation of cell at sub-G1 phase at IC50 concentration incubated for 72 hrs by propidium iodide/RNase staining based flow cytometry relative to control; assay type: functional; settings: U-87MG ATCC
[15] = Cytotoxicity against human Astrocyte at 100 uM incubated for 72 hrs by PrestoBlue cell viability assay; assay type: toxicity, cell-based
U-251 [16] = assay: Induction of cell cycle arrest in human U-251MG cells assessed as accumulation of cell at G1 phase at IC50 concentration incubated for 72 hrs by propidium iodide/RNase staining based flow cytometry (reference value: 74.8 %); assay type: functional
Homo sapiens [17] = species: Homo sapiens; assay: Inhibition of PKA (unknown origin) assessed as residual activity at 10 uM relative to control
[18] = Cytotoxicity against human Astrocyte at 10 to 100 uM incubated for 72 hrs by PrestoBlue cell viability assay; assay type: toxicity, cell-based; settings: dose 10-100 µM
T98G [19] = assay: Antiproliferative activity against human T98G cells assessed as reduction in cell viability incubated for 72 hrs by PrestoBlue cell viability assay
[20] = biological target: Cyclin-dependent kinase 2 (Homo sapiens) (UniProt P24941); assay: Inhibition of CDK2 (unknown origin) assessed as residual activity at 10 uM relative to control
U-87 MG [21] = assay: Antiproliferative activity against human U-87 MG cells assessed as reduction in cell viability incubated for 24 hrs by PrestoBlue cell viability assay
U-251 [22] = assay: cells; settings: Homo sapiens, U-251, 24 h
Description: Antiproliferative activity against human U-251MG cells assessed as reduction in cell viability incubated for 24 hrs by PrestoBlue cell viability assay

[23] = biological target: RAC-beta serine/threonine-protein kinase (Homo sapiens) (UniProt P31751); assay: Inhibition of PKBbeta (unknown origin) assessed as residual activity at 10 uM relative to control
[24] = biological target: RAC-alpha serine/threonine-protein kinase (Homo sapiens) (UniProt P31749); assay: Inhibition of PKBalpha (unknown origin) assessed as residual activity at 10 uM relative to control
T98G [25] = assay: Antiproliferative activity against human T98G cells assessed as reduction in cell viability at IC50 concentrations incubated for 72 hrs in presence of in BBB model (cocultured with HA, HBVP and HBMEC cells) by PrestoBlue cell viability assay relative to control; assay type: functional
T98G [26] = assay: Antiproliferative activity against human T98G cells assessed as reduction in cell viability at IC50 concentrations incubated for 72 hrs by PrestoBlue cell viability assay relative to control; assay type: functional
T98G [27] = assay: Induction of cell cycle arrest in human T98G cells assessed as accumulation of cell at G1 phase at IC50 concentration incubated for 72 hrs by propidium iodide/RNase staining based flow cytometry (reference value: 73.3 %); assay type: functional
U-251 [28] = assay: Antiproliferative activity against human U-251MG cells assessed as reduction in cell viability incubated for 24 to 72 hrs by PrestoBlue cell viability assay; assay type: functional, cell-based; settings: dose 0.3-300 µM, time 24-72 hrs
[29] = biological target: Cyclin-dependent kinase 5 (Homo sapiens) (UniProt Q00535); assay: Inhibition of CDK5 (unknown origin) assessed as residual activity at 10 uM relative to control
U-87 MG [30] = assay: Antiproliferative activity against human U-87 MG cells assessed as reduction in cell viability incubated for 48 hrs by PrestoBlue cell viability assay
U-251 [31] = assay: cells; settings: Homo sapiens, U-251, 72 h
Description: Antiproliferative activity against human U-251MG cells assessed as reduction in cell viability incubated for 72 hrs by PrestoBlue cell viability assay

[32] = biological target: Cyclin-dependent kinase 9 (Homo sapiens) (UniProt P50750); assay: Inhibition of CDK9 (unknown origin) assessed as residual activity at 10 uM relative to control
U-87 MG [33] = assay: Induction of cell cycle arrest in human U-87 MG cells assessed as accumulation of cell at G1 phase at IC50 concentration incubated for 72 hrs by propidium iodide/RNase staining based flow cytometry (reference value: 55.0 %); assay type: functional, U-87MG ATCC
U-87 MG [34] = assay: Induction of cell cycle arrest in human U-87 MG cells assessed as accumulation of cell at S phase at IC50 concentration incubated for 72 hrs by propidium iodide/RNase staining based flow cytometry relative to control; assay type: functional, U-87MG ATCC
[35] = Inhibition of PKA (unknown origin); design: species or system Homo sapiens
T98G [36] = assay: Induction of cell cycle arrest in human T98G cells assessed as accumulation of cell at S phase at IC50 concentration incubated for 72 hrs by propidium iodide/RNase staining based flow cytometry relative to control; assay type: functional
U-87 MG [37] = assay: Antiproliferative activity against human U-87 MG cells assessed as reduction in cell viability incubated for 72 hrs by PrestoBlue cell viability assay

Sequence of Mitogen-activated protein kinase 3 (Homo sapiens) (P27361 whole entry): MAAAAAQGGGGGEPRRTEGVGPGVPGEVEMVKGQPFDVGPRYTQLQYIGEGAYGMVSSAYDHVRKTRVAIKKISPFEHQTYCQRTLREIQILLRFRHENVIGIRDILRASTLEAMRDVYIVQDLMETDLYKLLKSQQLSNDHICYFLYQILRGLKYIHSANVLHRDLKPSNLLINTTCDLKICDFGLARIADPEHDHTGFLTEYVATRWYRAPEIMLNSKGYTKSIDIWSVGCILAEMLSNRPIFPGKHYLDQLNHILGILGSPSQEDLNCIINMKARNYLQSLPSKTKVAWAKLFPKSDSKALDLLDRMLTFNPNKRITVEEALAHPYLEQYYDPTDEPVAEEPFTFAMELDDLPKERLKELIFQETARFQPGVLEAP
Sequence of RAC-beta serine/threonine-protein kinase (Homo sapiens) (P31751 whole entry): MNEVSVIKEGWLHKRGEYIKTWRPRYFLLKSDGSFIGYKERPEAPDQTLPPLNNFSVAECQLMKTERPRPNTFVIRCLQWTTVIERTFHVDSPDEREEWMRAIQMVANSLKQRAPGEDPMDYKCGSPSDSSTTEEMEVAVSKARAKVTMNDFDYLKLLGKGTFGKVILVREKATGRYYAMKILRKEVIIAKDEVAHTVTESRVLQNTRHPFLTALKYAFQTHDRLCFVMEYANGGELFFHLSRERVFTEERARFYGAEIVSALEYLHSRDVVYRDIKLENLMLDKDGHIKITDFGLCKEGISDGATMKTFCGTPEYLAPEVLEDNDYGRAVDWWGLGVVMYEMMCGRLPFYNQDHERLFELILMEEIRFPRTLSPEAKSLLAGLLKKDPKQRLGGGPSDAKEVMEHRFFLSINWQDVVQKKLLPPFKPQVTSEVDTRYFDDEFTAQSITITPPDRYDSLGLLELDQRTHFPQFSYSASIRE
Sequence of Mitogen-activated protein kinase 1 (Homo sapiens) (P28482 whole entry): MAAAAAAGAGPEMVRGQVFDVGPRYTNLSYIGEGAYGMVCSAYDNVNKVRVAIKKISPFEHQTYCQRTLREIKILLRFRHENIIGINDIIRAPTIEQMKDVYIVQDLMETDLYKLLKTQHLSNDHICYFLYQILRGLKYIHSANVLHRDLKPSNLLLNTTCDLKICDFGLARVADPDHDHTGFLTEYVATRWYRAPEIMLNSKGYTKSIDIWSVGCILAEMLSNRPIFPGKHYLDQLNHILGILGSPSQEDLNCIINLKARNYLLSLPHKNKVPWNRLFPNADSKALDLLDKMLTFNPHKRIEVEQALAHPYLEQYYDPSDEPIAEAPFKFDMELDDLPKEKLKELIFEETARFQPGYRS
Sequence of RAC-alpha serine/threonine-protein kinase (Homo sapiens) (P31749 whole entry): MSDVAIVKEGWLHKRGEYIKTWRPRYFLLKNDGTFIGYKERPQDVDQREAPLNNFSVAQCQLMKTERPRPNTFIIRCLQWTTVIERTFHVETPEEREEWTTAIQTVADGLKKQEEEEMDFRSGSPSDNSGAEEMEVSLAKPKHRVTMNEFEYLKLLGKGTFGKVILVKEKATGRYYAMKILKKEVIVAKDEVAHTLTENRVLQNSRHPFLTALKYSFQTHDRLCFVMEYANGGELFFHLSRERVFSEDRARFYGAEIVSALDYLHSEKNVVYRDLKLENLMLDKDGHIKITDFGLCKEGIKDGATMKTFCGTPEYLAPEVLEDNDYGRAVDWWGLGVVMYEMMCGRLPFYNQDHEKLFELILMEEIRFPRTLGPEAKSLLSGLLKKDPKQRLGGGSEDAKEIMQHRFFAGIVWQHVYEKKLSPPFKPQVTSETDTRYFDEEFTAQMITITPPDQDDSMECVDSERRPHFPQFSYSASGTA
Sequence of Cyclin-dependent kinase 9 (Homo sapiens) (P50750 whole entry): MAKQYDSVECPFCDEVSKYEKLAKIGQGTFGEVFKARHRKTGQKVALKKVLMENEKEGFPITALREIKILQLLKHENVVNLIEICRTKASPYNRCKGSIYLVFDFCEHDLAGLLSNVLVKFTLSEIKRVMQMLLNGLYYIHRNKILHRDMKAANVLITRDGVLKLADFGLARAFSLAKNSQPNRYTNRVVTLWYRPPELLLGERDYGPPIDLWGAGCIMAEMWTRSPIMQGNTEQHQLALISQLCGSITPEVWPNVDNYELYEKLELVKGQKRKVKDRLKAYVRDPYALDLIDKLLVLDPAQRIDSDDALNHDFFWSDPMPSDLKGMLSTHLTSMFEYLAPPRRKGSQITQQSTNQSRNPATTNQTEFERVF
Sequence of Cyclin-dependent kinase 5 (Homo sapiens) (Q00535 whole entry, looked up): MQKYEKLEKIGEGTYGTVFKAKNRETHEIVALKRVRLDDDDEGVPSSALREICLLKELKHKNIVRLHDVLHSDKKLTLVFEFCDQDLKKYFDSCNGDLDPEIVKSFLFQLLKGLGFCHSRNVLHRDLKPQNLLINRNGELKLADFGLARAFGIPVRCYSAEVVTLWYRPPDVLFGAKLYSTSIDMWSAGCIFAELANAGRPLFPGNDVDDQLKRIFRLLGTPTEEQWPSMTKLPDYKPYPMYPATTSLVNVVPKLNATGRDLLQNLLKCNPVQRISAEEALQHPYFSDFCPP

With CC(C)c1ccc(-c2c3cn[nH]c3nc3c2oc2cc(O)ccc23)cc1 the IC50 (T98G [1]) was 8.1 µM, the Activity (U-87 MG [2]) was “Dose-dependent-effect” and the Activity [3] was greater than 50%. It also gave an IC50 (T98G [4]) of 12 µM, a half-life at 10 µM [5] of 1.68 h and an IC50 (U-251 [6]) of 8.3 µM. For the same compound, the inhibition (Homo sapiens [7]) was “Active”, the Activity [8] was greater than 50% and the Activity [9] was greater than 50%. For the same compound, the Activity (T98G [10]) was “Dose-dependent-effect”, the Activity (U-251 [11]) was 15.9% and the CLH [12] was 5.6 µL/min/mg. For the same compound, the Activity [13] was greater than 50%, the Activity (U-87 MG [14]) was “Active” and the Activity [15] was “Non-toxic”. The Activity (U-251 [16]) was 61.6%, the Activity (Homo sapiens [17]) was greater than 50% and the Activity [18] was “Non-toxic”. The IC50 (T98G [19]) was 6.2 µM, the Activity [20] was greater than 50% and the IC50 (U-87 MG [21]) was 15 µM. It also gave an IC50 (U-251 [22]) of 15.1 µM, an Activity [23] greater than 50% and an Activity [24] greater than 50%. The Activity (T98G [25]) was 78%, the Activity (T98G [26]) was 61% and the Activity (T98G [27]) was 65.8%. The Activity (U-251 [28]) was “Dose-dependent-effect”, the Activity [29] was greater than 50% and the IC50 (U-87 MG [30]) was 4.7 µM. The IC50 (U-251 [31]) was 6.1 µM, the Activity [32] was greater than 50% and the Activity (U-87 MG [33]) was 45.5%. The Activity (U-87 MG [34]) was 27.8%, the IC50 [35] was 0.188 µM and the Activity (T98G [36]) was 22.3%. The IC50 (U-87 MG [37]) was 3.3 µM.
For Cn1sc(=O)n(Cc2ccccc2)c1=O, the IC50 (T98G [1]) was 54.4 µM, the Activity (U-87 MG [2]) was “Dose-dependent-effect” and the IC50 (T98G [4]) was 65.9 µM. The IC50 (U-251 [6]) was 24.9 µM, the Activity (T98G [10]) was “Dose-dependent-effect” and the IC50 (T98G [19]) was 41.4 µM. For the same compound, the IC50 (U-87 MG [21]) was 36.8 µM, the IC50 (U-251 [22]) was 51 µM and the Activity (U-251 [28]) was “Dose-dependent-effect”. The IC50 (U-87 MG [30]) was 28.2 µM, the IC50 (U-251 [31]) was 15.7 µM and the IC50 (U-87 MG [37]) was 23.6 µM.
